Test results taken from ChEMBL document CHEMBL6120983, “Synthesis and Structure-Activity Relationship of Covalent Inhibitors of SARS-CoV-2 Papain-Like Protease with Antiviral Potency” (Bioorg Med Chem Lett, 2025).

Tests used:
[1] = target: Replicase polyprotein 1ab (Severe acute respiratory syndrome coronavirus 2, UniProt P0DTD1); assay: Inhibition of SARS-CoV-2 papain-like protease using Z-Arg-Leu-Arg-Gly-Gly-AMC as substrate incubated for 15 mins
SARS-CoV-2 = assay: Antiviral activity against SARS CoV-2 infected in human HeLa-ACE2 assessed as reduction in viral replication incubated for 24 hrs; type: functional; details: Severe acute respiratory syndrome coronavirus 2, HeLa-ACE2
[2] = Cytotoxicity against human A549-ACE2 cells assessed as reduction in cell viability; type: toxicity, cell-based
[3] = Half life in dog at 2 mg/kg, iv; type: ADME, organism-based, Canis lupus familiaris; details: in vivo
[4] = Volume of distribution in dog at 2 mg/kg, iv; type: ADME, organism-based, Canis lupus familiaris; details: in vivo
[5] = Clearance in dog at 2 mg/kg, iv; type: ADME, organism-based, Canis lupus familiaris; details: in vivo
[6] = Oral bioavailability in dog at 20 mg/kg; type: ADME, organism-based, Canis lupus familiaris; details: in vivo
[7] = Tlast in dog at 20 mg/kg, po; type: ADME, organism-based, Canis lupus familiaris; details: in vivo
[8] = Cmax in dog at 20 mg/kg, po; type: ADME, organism-based, Canis lupus familiaris; details: in vivo
[9] = Half life in dog at 20 mg/kg, po; type: ADME, organism-based, Canis lupus familiaris; details: in vivo
[10] = Plasma protein binding in human; type: ADME, cell-free; details: read-out: PPB (converted)
[11] = Ratio of CC50 for cytotoxicity against human A549-ACE2 cells assessed as reduction in cell viability to EC90 for antiviral activity against SARS CoV-2 infected in human HeLa-ACE2 assessed as reduction in viral replication; type: toxicity, cell-based
[12] = AUC (0 to last) in dog at 2 mg/kg, iv; type: ADME, organism-based, Canis lupus familiaris; details: in vivo
[13] = MRT (0 to last) in dog at 2 mg/kg, iv; type: ADME, organism-based, Canis lupus familiaris; details: in vivo
[14] = Tlast in dog at 2 mg/kg, iv; type: ADME, organism-based, Canis lupus familiaris; details: in vivo
[15] = AUC (0 to last) in dog at 20 mg/kg, po; type: ADME, organism-based, Canis lupus familiaris; details: in vivo
[16] = Cmax in dog at 2 mg/kg, iv; type: ADME, organism-based, Canis lupus familiaris; details: in vivo
[17] = Intrinsic clearance in mouse liver microsomes; type: ADME, Microsome; details: read-out: CLH
[18] = Clearance in dog at 20 mg/kg, po; type: ADME, organism-based, Canis lupus familiaris; details: in vivo
[19] = MRT (0 to last) in dog at 20 mg/kg, po; type: ADME, organism-based, Canis lupus familiaris; details: in vivo

| Compound | IC50 [1] | EC90 (SARS-CoV-2) | CC50 ([2]; A549-ACE2 cells) | CC50 ([2]; a549-ace2) | also measured |
| --- | --- | --- | --- | --- | --- |
| CCCCOC(=O)/C=C/C(=O)NNC(=O)CCc1ccccc1C(=O)N[C@H](C)c1cccc2ccccc12 | 0.24 µM | 0.18 µM | > 99 µM | – | – |
| CC#CC(=O)NNC(=O)CCc1ccccc1C(=O)N[C@H](C)c1cccc2ccccc12 | 11.3 µM | > 9.6 µM | – | 68.9 µM | – |
| C[C@@H](NC(=O)c1ccccc1CCC(=O)NNC(=O)/C=C/C(=O)OC(C)(C)C)c1cccc2ccccc12 | 0.24 µM | 1.75 µM | – | 64 µM | – |
| C[C@@H](NC(=O)c1ccccc1CCC(=O)NNC(=O)/C=C/C(=O)OCc1ccccc1)c1cccc2ccccc12 | 0.52 µM | 0.78 µM | – | 98.9 µM | – |
| CC(=O)/C=C/C(=O)NNC(=O)CCc1ccccc1C(=O)N[C@H](C)c1cccc2ccccc12 | 27.2 µM | 12.9 µM | > 99 µM | – | – |
| C[C@@H](NC(=O)c1ccccc1CCC(=O)NNC(=O)/C=C/C(=O)O)c1cccc2ccccc12 | 2.6 µM | > 9.6 µM | > 99 µM | – | – |
| CNC(=O)/C=C/C(=O)NNC(=O)CCc1ccccc1C(=O)N[C@H](C)c1cccc2ccccc12 | 16.2 µM | > 9.6 µM | > 99 µM | – | – |
| C[C@@H](NC(=O)c1ccccc1CCC(=O)NNC(=O)/C=C/C#N)c1cccc2ccccc12 | 1.9 µM | 15.2 µM | – | 13.1 µM | – |
| COc1ccc(COC(=O)/C=C/C(=O)NNC(=O)CCc2ccccc2C(=O)N[C@H](C)c2cccc3ccccc23)cc1OC | 1.01 µM | 0.26 µM | > 99 µM | – | – |
| C[C@@H](NC(=O)c1ccccc1CCC(=O)NNC(=O)COC(F)(F)F)c1cccc2ccccc12 | 52.9 µM | > 9.6 µM | > 99 µM | – | – |
| C[C@@H](NC(=O)c1ccccc1CCC(=O)NNC(=O)/C=C/C(=O)OC1CCC1)c1cccc2ccccc12 | 0.33 µM | 0.27 µM | – | 64.8 µM | – |
| CCOC(=O)/C=C/C(=O)NNC(=O)CCc1ccccc1C(=O)N[C@H](C)c1cccc(-c2cccs2)c1 | 0.14 µM | 0.21 µM | – | – | half-life [3]: 6.48 min; Vd [4]: 0.681 L/kg; clearance [5]: 95.1 mL/min/kg; bioavailability [6]: 1.9%; Tlast [7]: 8 h; Cmax [8]: 20 ng/mL; half-life [9]: 2.62 h; fraction unbound [10]: 0.014; selectivity ratio [11]: 56.7; AUC(0-t) [12]: 362 ng·h/mL; MRT last [13]: 7.02 min; Tlast [14]: 1 h; AUC(0-t) [15]: 62 ng·h/mL; Cmax [16]: 3220 ng/mL; microsomal CLint [17]: 618 µL/min/mg; CL/F [18]: 5090 mL/min/kg; MRT last [19]: 2.94 h |
| COC(=O)/C=C/C(=O)NNC(=O)CCc1ccccc1C(=O)N[C@H](C)c1cccc(-c2cc3ccccc3o2)c1 | 0.25 µM | 0.12 µM | – | 59 µM | – |
| CC(C)OC(=O)/C=C/C(=O)NNC(=O)CCc1ccccc1C(=O)N[C@H](C)c1cccc2ccccc12 | 0.24 µM | 0.56 µM | – | 59.3 µM | – |
| COC(=O)/C=C/C(=O)NNC(=O)CCc1ccccc1C(=O)N[C@H](C)c1cccc(-c2cncnc2)c1 | 0.35 µM | 9.55 µM | > 99 µM | – | – |
| C[C@@H](NC(=O)c1ccccc1CCC(=O)NNC(=O)/C=C/C(=O)OCc1ccc2ccccc2n1)c1cccc2ccccc12 | 0.45 µM | 1.14 µM | – | 13.6 µM | – |
| C[C@@H](NC(=O)c1ccccc1CCC(=O)NNC(=O)/C=C/c1ncco1)c1cccc2ccccc12 | 44.5 µM | > 9.6 µM | > 99 µM | – | – |
